# In the NIST ThermoML archive (doi:10.1021/je3009073):
# Numbers after ± are expanded uncertainties.
# Legend:
# [1] = 101.33 kPa, Liquid; for viscosity: Capillary tube (Ostwald / Ubbelohde) method; for mass density: Pycnometric method
# [2] = xn = mol fraction of the nth substance listed; details: 101 kPa, Liquid, x1 = 1; for viscosity: Capillary tube (Ostwald / Ubbelohde) method; for mass density: Pycnometric method
viscosity ([1]; 303.15 K),mass density ([1]; 303.15 K),viscosity ([1]; 308.15 K),mass density ([1]; 308.15 K),viscosity ([1]; 313.15 K),mass density ([1]; 313.15 K),viscosity ([1]; 318.15 K),mass density ([1]; 318.15 K),viscosity ([1]; 323.15 K),mass density ([1]; 323.15 K),viscosity ([1]; 328.15 K),mass density ([1]; 328.15 K),viscosity ([2]; 303.15 K),viscosity ([2]; 308.15 K),viscosity ([2]; 313.15 K),viscosity ([2]; 318.15 K),viscosity ([2]; 323.15 K),mass density ([2]; 323.15 K),viscosity ([2]; 328.15 K),mass density ([2]; 328.15 K),Structure (SMILES)
14.55 ± 0.61 mPa·s,1007.9 ± 2 kg/m3,11.86 ± 0.5 mPa·s,1004.2 ± 2 kg/m3,9.65 ± 0.41 mPa·s,1000.5 ± 2.1 kg/m3,7.91 ± 0.33 mPa·s,996.2 ± 2.1 kg/m3,6.72 ± 0.28 mPa·s,992.7 ± 2.1 kg/m3,5.74 ± 0.24 mPa·s,988.7 ± 2.1 kg/m3,,,,,,,,,NCCO [2-aminoethan-1-ol]
,,,,,,,,,,,,0.8 ± 0.03 mPa·s,0.72 ± 0.03 mPa·s,0.65 ± 0.03 mPa·s,0.6 ± 0.1 mPa·s,0.55 ± 0.02 mPa·s,988 ± 2 kg/m3,0.5 ± 0.02 mPa·s,985.7 ± 2 kg/m3,O [water] + CC(O)C(=O)[O-].CN(C)C(N)=[N+](C)C
,,,,,,,,,,,,0.8 ± 0.03 mPa·s,0.72 ± 0.03 mPa·s,0.65 ± 0.03 mPa·s,0.6 ± 0.02 mPa·s,0.55 ± 0.02 mPa·s,988 ± 2 kg/m3,0.5 ± 0.02 mPa·s,985.7 ± 2 kg/m3,O [water] + CC(O)C(=O)[O-].[NH3+]CCO
